“And” between values parts separate entries of the source, which are not always exact repeats. Equal values may be shown once. Read-outs that look alike come from different tables or passages of the source.
Key:
[1] = biological target: T1, human liver cytochrome bc1 complex (Homo sapiens, UniProt P00156); experiment: Human cytochrome bc1 assay (liver mitochondrial preparation)
Method: All use of human tissue was approved by the OHSU IRB. Approximately 10 g of human liver tissue was obtained intraoperatively and placed in ice-cold PBS containing 5 mM glucose. [Note: The specimen was obtained from grossly normal tissue that was resected around the margins of a tumor as part of the standard surgical treatment for hepatic tumors.] Liver was homogenized using a razor blade followed by a Dounce homogenizer. HALT Protease Inhibitor Cocktail (Pierce) was added per the manufacturer’s instructions. A crude mitochondrial fraction was prepared by differential centrifugation as described in Renault et al.[35] The final pellet was resuspended in storage buffer (50 mM tricine, 100 mM KCl, 2 mM NaN, 2.0% dodecyl-beta-D-maltoside, 30% glycerol, pH 8.0). Aliquots of this mitochondrial preparation were frozen in a dry ice–ethanol bath and stored at −80 °C until use.
Two microliters of mitochondrial preparation was resuspended in the assay buffer (50 mM tricine, 100 mM KCl, 2 mM NaN3, 0.1% dodecyl-beta-D-maltoside). […] Antimycin A was dissolved in ethanol as a 1 mM stock. Decylubiquinone was reduced to decylubiquinol with an excess of NaBH4, and the excess NaBH4 was subsequently quenched with hydrochloric acid. […] The rate of the nonenzymatic reaction of cytochrome c and decylubiquinol was measured separately in the absence of mitochondrial preparation and found to be insignificant. […]

[2] = system: P. falciparum drug-sensitive D6 strain; experiment: SYBR Green I antiplasmodial assay, D6 strain; assay type: cell-based; settings: Plasmodium falciparum, read-out: P. falciparum IC50 values, D6
Method: (§1) All of this information is stored in a database with information relating to chemical structure, physical chemical properties, cross resistance patterns, mammalian cell cytotoxicity, enzyme inhibitor profiles, and synthesis details. Pharmacological data and in vivo efficacy data are also stored in the database for molecules of particular interest. […] We synthesized the compound in an initial batch size of about 800 mg as described above. […] Fluorescence readings were captured with a fluorescence plate reader and processed by nonlinear regression analysis using the GraphPad Prism software to provide IC50 values for each determination. Stock solutions were freshly prepared daily in DMSO in glass vials.
(§2) Laboratory strains of P. falciparum were cultured in human erythrocytes by standard methods. The parasites were grown in culture medium with fresh human erythrocytes maintained at 2% hematocrit at 37 °C in low-oxygen conditions (5% O2, 5% CO2, 90% N2). […] Cultures were maintained at less than 10% parasitemia by transfer of infected cells to fresh erythrocytes and culture medium every 3 or 4 days.
(§3) SYBR green I assay. In vitro antiplasmodial activity was assessed using a published SYBR Green I fluorescence-based method.[20] The drugs were added to 96-well plates using twofold serial dilutions in complete medium. […] Asynchronous P. falciparum parasites were diluted with uninfected erythrocytes and added to the wells to give a final culture volume of 100 μL at 2% hematocrit and 0.2% parasitemia. […] The parasites were then lysed by adding 100 μL of SYBR green I lysis buffer containing 0.2 μL/ml SYBR green I dye (10,000×) in 20 mM Tris (pH 7.5), 5 mM EDTA, 0.008% (wt/vol) saponin, and 0.08% (v/v) Triton X-100. The plates were incubated at room temperature for an hour in the dark. […] If the IC50 value fell outside of the initially tested range, then the range was adjusted up or down, and the assay was repeated twice.

[3] = system: P. falciparum multidrug-resistant Dd2 strain; experiment: microbe, parasite or virus in culture; assay type: cell-based; settings: Plasmodium falciparum, DD2, 72 h, read-out: P. falciparum IC50 values, Dd2
Method: as §1, §2, §3

[4] = system: P. falciparum atovaquone-resistant clinical isolate Tm90-C2B; experiment: SYBR Green I antiplasmodial assay, Tm90-C2B; assay type: cell-based; settings: Plasmodium falciparum, read-out: P. falciparum IC50 values, Tm90-C2B
Method: as §1, §2, §3

[5] = system: P. falciparum ELQ-300-resistant D1 clone; experiment: microbe, parasite or virus in culture; assay type: cell-based; settings: Plasmodium falciparum, 72 h, read-out: P. falciparum IC50 values, D1
[6] = system: P. yoelii blood-stage infection; settings: for blood stage in vivo efficacy, 4 day Peters test results, NRD (nonrecrudescence dose) / blood stage in vivo efficacy, 4 day Peters test results, ED50 / blood stage in vivo efficacy, 4 day Peters test results, ED90: mice; for blood stage in vivo efficacy, 4 day Peters test results, NRD (nonrecrudescence dose): oral gavage days 1-4, followed to day 30; for blood stage in vivo efficacy, 4 day Peters test results, ED50 / blood stage in vivo efficacy, 4 day Peters test results, ED90: oral gavage days 1-4, parasitemia day 5, prodrugs dosed on molar equivalency to parent
Method: (§4) On day 5, a drop of blood was taken from the tail, and a blood smear was prepared, fixed with methanol, and stained with Giemsa. The operator then examined the stained smear microscopically to determine percent parasitemia. […] In this model, animals were inoculated exactly as for the 4 day test on day 0; however, drug was administered only on day 1, whereas smears were made on day 5 and again weekly thereafter for animals that remained aparasitemic. Animals that remained aparasitemic on day 30 were scored as cures.
The P. yoelii 4 day test monitors suppression of patent infection in female CF1 mice. The test began with the inoculation (iv) of parasitized erythrocytes (3.5 × 10^4P. yoelli) (from a donor animal) on the first day of the experiment (D0). […] Initially, the 3-biaryl-ELQs were tested at doses of 0.0025, 0.005, 0.01, 0.03, 0.1, 0.3, 1.0, and 10 mg/kg/day, including a vehicle-only (PEG400) control. After completion of drug treatment, a blood sample was collected (by pricking the tail vein) for determination of parasite burden beginning on the day after the final dose (D5). Percent parasitemia was assessed by direct microscopic analysis of Giemsa-stained blood smears. […] Animals with observable parasitemia following the experiment were euthanized; animals cleared of parasites from the bloodstream were observed daily with assessment of parasitemia performed weekly until day 30, at which point the animals were scored as cured of infection. […] Nonlinear regression analysis was used for objective determination of ED50’s and ED90’s from the accumulated data as well as the nonrecrudescence dose (NRD). The 4 day test protocol was reviewed and approved by the local IACUC board at the Portland VA Medical Center. Experiments were performed with four mice per group to ensure statistical accuracy.

[7] = system: P. yoelii blood-stage infection; experiment: Single-dose cure of blood-stage murine malaria; assay type: in vivo, Plasmodium yoelii; settings: for blood stage in vivo efficacy, single dose cure: lowest single oral dose curing all four mice, day 30
Method: as §4
The effectiveness of selected 3-biaryl ELQs and prodrugs was assessed vs the blood-stage infection for single-dose cures. Mice were infected iv with 3.5 × 10^4P. yoelii infected RBCs as described for the 4 day test above. Drug administration occurred on the day after inoculation (day 1). Test agents were dissolved in PEG-400 and administered ig once. On the fifth day, blood films were prepared, and % parasitemia was assessed. Animals remaining parasite-free for 30 days after drug administration were considered cured. The initial dosing range was 0.25, 0.5, 1, 3, and 10 mg/kg, including a control. Experiments were performed with four mice per group to ensure statistical accuracy. The reported parameter for these studies is the lowest single dose that provides a cure to all four animals in the group.

[8] = biological target: T1, human liver cytochrome bc1 complex; design: method as in Nilsen et al., 2013; settings: ref Nilsen et al., 2013; cited from earlier work
[9] = Metabolic stability in liver microsomes, mouse; assay type: in vitro ADME; settings: pooled mouse liver microsomes, pH 7.4; mouse liver microsomes 0.5 mg/mL, NADPH, 37 °C, 45 min, 1 μM
Method: (§5) […]. Samples were taken over the interval of 45 min and analyzed by LC–MS/MS for the presence of test compound. Ketanserin served as an internal standard for the metabolic rate of a drug with known intermediate stability. […].
(§6) The drug was incubated at 37 °C and 1 μM concentration in murine liver microsomes (Corning) for 45 min at a protein concentration of 0.5 mg/mL in potassium phosphate buffer at pH 7.4 containing 1.0 mM EDTA. The metabolic reaction was initiated by addition of NADPH and quenched with ice-cold acetonitrile at 0, 5, 15, 25, and 45 min.

[10] = Metabolic stability in liver microsomes, rat; assay type: in vitro ADME; settings: rat, pH 7.4
[11] = Metabolic stability in liver microsomes, human; assay type: in vitro ADME; settings: human, pH 7.4
Method: as §5, §6

[12] = Pharmacokinetics after single dose of ELQ-598; assay type: in vivo; settings: for k el / Tmax / AUC(0-inf) / Cmax / half-life: mouse plasma; for bioavailability: read-out: F (oral bioavailability); for Vd / CL/F / Vdarea/F / AUCratio (molar AUC ELQ-598/AUC ELQ-596): mouse; for Vd: read-out: Vdss
Method: Animals had free access to food and water during the study. Following drug administration, the animals were manually restrained at the designated time points, and 100 μL of blood was withdrawn from the facial vein for semiserial sampling into heparinized tubes. Blood samples were placed on ice and centrifuged (2000g, 5 min, 4 °C) to obtain plasma. The plasma was mixed with 10% formic acid (FA) in water [plasma/10% FA (v/v = 10:1)]. […] At the outset of the study, 18 animals were randomly separated into two different groups (po and iv) of nine animals each. Blood samples were taken from three animals at each time point such that the same group of the animals was sampled at […] throughout the experiment for both po and iv arms. […] Dichlofenac was used as an internal standard.
MW is the molecular weight. The terminal elimination rate constant kel was estimated by linear least-squares regression analysis of the terminal log-linear portion of the plasma concentration–time curves by the software.

[13] = HepG2 cytotoxicity / mitochondrial toxicity (TiterGlo ATP, galactose medium); settings: human
Method: HepG2 was routinely cultured in DMEM containing 10% fetal calf serum and 100 IU/mL penicillin and 100 μg/mL streptomycin (complete medium). For studies to investigate the potential for mitochondrial toxicity by selected 3-biaryl-ELQs, the medium contained galactose rather than glucose to force the cells to produce ATP through oxidative phosphorylation, which in turn makes them sensitive to mitochondrial toxicants.[36] […] After this period, the culture medium was removed, and the cells were shifted to galactose-containing medium with test drugs at concentrations ranging from 0 to 10 μM. Drug dilutions were prepared from DMSO stocks into galactose-containing medium. […] After incubation, the contents of each well were removed, and 25 μL of TiterGlo II reagent mix containing luciferase, detergent, and luciferin was added to each well along with 25 μL of culture medium. […] At this point, the plates were read on a luminometer (SpectraMax iD3 iD5Multi-Mode Microplate Reader), and the data were processed to yield the percent decrease in ATP production relative to no-drug control values. These values reflect the potential damage caused by mitochondrial toxicants due to reduced intracellular ATP levels caused by interference with the human mitochondrial electron transport chain. Assays were set up in triplicate.

[14] = system: P. yoelii sporozoites (liver stage); experiment: Causal prophylaxis, sporozoite challenge in mice; settings: 1.0 mg/kg single oral dose 1 h after 10,000 P. yoelii sporozoites iv; followed 30 days
Method: For this study, mice were inoculated with 10,000 P. yoelii sporozoites via tail vein injections, and drug was administered by gavage an hour later and only once. We monitored for the presence of blood-stage parasites as a measure of liver-stage infection.
Mice were inoculated with 10,000 sporozoites via tail vein injection of CF1 mice treated with or without drug (dissolved in PEG400) 1 h after inoculation. […] Additional monitoring for blood-stage infection was continued for a 30 day period to confirm true causal prophylaxis against P. yoelii challenge. […] Testing involved the use of four animals per group for statistical accuracy. […] A minimum of 5000 red blood cells were examined to establish blood-stage infection. Blood smears were fixed with methanol, stained with Giemsa, and viewed under oil immersion at 1000× magnification under standard light microscopy.

[15] = male, CD1, mouse, plasma, po, 10 mg/kg, single ELQ-598 dose 10 mg/kg PO (PEG400), read-out: Tmax
[16] = male, CD1, mouse, plasma, po, 10 mg/kg
[17] = male, CD1, plasma, single ELQ-598 dose 0.3 mg/kg IV
[18] = male, CD1, plasma, single ELQ-598 dose 10 mg/kg PO, read-out: CL/F (converted)
[19] = male, CD1, single ELQ-598 dose 0.3 mg/kg IV
[20] = male, CD1, single ELQ-598 dose 0.3 mg/kg IV, elimination
[21] = male, CD1, single ELQ-598 dose 10 mg/kg PO
[22] = male, CD1, single ELQ-598 dose 10 mg/kg PO (PEG400)
[23] = male, CD1, single ELQ-598 dose 10 mg/kg PO, apparent elimination
[24] = single ELQ-598 dose 0.3 mg/kg IV
[25] = single ELQ-598 dose 10 mg/kg PO

Q: With `CCCCCC[C@H]1C(=O)O[C@H](C)[C@H](NC(=O)c2cccc(NC=O)c2O)C(=O)O[C@@H](C)[C@@H]1OC(=O)CC(C)C` [Antimycin A, reference compound] as the compound, how does the EC50 [1] read?
A: < 0.156 µM

Q: Which results are given for `O=C1C(O)=C([C@H]2CC[C@H](c3ccc(Cl)cc3)CC2)C(=O)c2ccccc21` [Atovaquone, reference compound]?
A: IC50 ([2]; D6, 72 h, SYBR Green, mean (95% confidence interval of fit)): 0.08 nM; IC50 [3]: 0.4 nM; IC50 ([4]; TM90, 72 h, SYBR Green, mean (95% confidence interval of fit)): > 1000 nM; IC50 [5]: 0.4 nM; blood stage in vivo efficacy, 4 day Peters test results, NRD (nonrecrudescence dose) [6]: 10 mg/kg/day; blood stage in vivo efficacy, 4 day Peters test results, ED50 [6]: 0.1 mg/kg/day; blood stage in vivo efficacy, single dose cure [7]: 10 mg/kg/day; EC50 [8]: 460 nM

Q: What does the source list for `COc1cc2[nH]c(C)c(-c3ccc(-c4ccc(OC(F)(F)F)cc4)cc3)c(=O)c2cc1Cl` [ELQ-596, 6-Chloro-7-methoxy-2-methyl-3-(4′-(trifluoromethoxy)-[1,1′-biphenyl]-4-yl)quinolin-4(1H)-one]?
A: IC50 ([2]; D6, 72 h): 1.4 nM; IC50 [3]: 1.6 nM; IC50 ([4]; TM90, 72 h): 0.7 nM; half-life at 1 μM [9]: > 2.78 days; half-life at 1 μM [10]: > 2.78 days; half-life at 1 μM [11]: > 2.78 days; blood stage in vivo efficacy, 4 day Peters test results, NRD (nonrecrudescence dose) [6]: 0.3 mg/kg/day; blood stage in vivo efficacy, 4 day Peters test results, ED50 [6]: 0.01 mg/kg/day; blood stage in vivo efficacy, 4 day Peters test results, ED90 [6]: 0.021 mg/kg/day; k el ([12]; male, CD1, in vivo, single ELQ-598 dose 0.3 mg/kg IV): 6.94e-06 s⁻¹; k el ([12]; male, CD1, in vivo, single ELQ-598 dose 10 mg/kg PO (PEG400)): 4.17e-06 s⁻¹; Tmax ([12]; male, CD1, mouse, plasma, iv, 0.3 mg/kg, single ELQ-598 dose 0.3 mg/kg IV, read-out: Tmax): 4 h; Tmax [12, 15]: 4 h; bioavailability [12, 16]: 73%; Vd [12, 17]: 0.78 L/kg; CL/F [12, 18]: 0.283 mL/min/kg; AUC(0-inf) [12, 19]: 12200 ng·h/mL; Cmax [12, 19]: 303 ng/mL; half-life [12, 20]: 1640 min; AUC(0-inf) [12, 21]: 484000 ng·h/mL; Cmax [12, 21]: 14.5 µM; Cmax [12, 22]: 6680 ng/mL; half-life [12, 23]: 2740 min; Tmax ([12]; single ELQ-598 dose 0.3 mg/kg IV, 0.3 mg/kg): 2 h; CL/F [12, 24]: 0.333 mL/min/kg; Vdarea/F [12, 24]: 0.81 L/kg; Vdarea/F [12, 25]: 1.11 L/kg; EC50 [1]: > 10 µM; EC50 at 24 h [13]: > 10 µM; IC50 at 24 h [13]: > 10 µM

Q: Which results are given for `CCOC(=O)OCOc1c(-c2ccc(-c3ccc(OC(F)(F)F)cc3)cc2)c(C)nc2cc(OC)c(Cl)cc12` [ELQ-598, (((6-Chloro-7-methoxy-2-methyl-3-(4′-(trifluoromethoxy)-[1,1′-biphenyl]-4-yl)quinolin-4-yl)oxy)methylethyl carbonate]?
A: IC50 ([2]; D6, 72 h): 1.5 nM; IC50 [3]: 4.4 nM; IC50 ([4]; TM90, 72 h): 0.8 nM; IC50 [5]: 734 nM; appearance, behavioral, or weight changes after dosing ([6]; in vivo): no appearance, behavioral, or weight changes observed; blood stage in vivo efficacy, 4 day Peters test results, NRD (nonrecrudescence dose) [6]: 0.12 mg/kg/day; blood stage in vivo efficacy, 4 day Peters test results, ED50 [6]: 0.005 mg/kg/day; blood stage in vivo efficacy, 4 day Peters test results, ED90 [6]: 0.0065 mg/kg/day; animals protected by single dose ([7]; 0.25 mg/kg single oral dose, four mice): two of four; effectiveness as single dose cure agent compared to ELQ-331 ([7]; blood-stage P. yoelii in mice): ~10 times; blood stage in vivo efficacy, single dose cure [7]: 0.3 mg/kg/day; lowest fully protective single dose cure ([7]; single oral dose day 1, aparasitemic day 30, four mice, parent-drug equivalent): 0.3 mg/kg; Tmax [12, 15]: ≤ 2 h; bioavailability [12, 16]: 0.26%; Vd [12, 17]: 0.09 L/kg; CL/F [12, 18]: 398 mL/min/kg; AUC(0-inf) [12, 19]: 757 ng·h/mL; k el [12, 19]: 0.000258 s⁻¹; half-life [12, 20]: 44.4 min; AUC(0-inf) [12, 21]: 419 ng·h/mL; Cmax [12, 22]: 79.4 ng/mL; k el [12, 22]: 3.89e-05 s⁻¹; half-life [12, 23]: 300 min; AUCratio (molar AUC ELQ-598/AUC ELQ-596) [12, 24]: 5.1%; CL/F [12, 24]: 6.67 mL/min/kg; Vdarea/F [12, 24]: 0.42 L/kg; AUCratio (molar AUC ELQ-598/AUC ELQ-596) [12, 25]: 0.07%; Vdarea/F [12, 25]: 173.5 L/kg; liver stage in vivo, # mice protected/total [14]: complete protection and 4/4; IC50 at 24 h ([13]; HepG2 cells): > 10 µM

From article PMC11245370, “3-Position Biaryl Endochin-like Quinolones with Enhanced Antimalarial Performance” (ACS Infectious Diseases, 2024)
